Source: patent US8633245B2, “PAI-1 inhibitor” (Institute of Medicinal Molecular Design, Inc., priority 2008, dated 2014)
Read-outs that look alike come from different tables or passages of the source.

Target: T1, recombinant human PAI-1 (Homo sapiens, UniProt P05121)
T1 construct: purchased Molecular Innovations, Inc
Test: Test Example 2: human PAI-1 inhibitory activity (tPA fluorogenic substrate, pH 7.4 HEPES buffer)
Assay type: biochemical
Conditions: for inhibition at 3 µM: read-out: Inhibition Rate of PAI-1 Activity (%)
Experimental: 0.1 M HEPES, 0.1 M NaCl. 1 mM EDTA. 0.1% Polyethylene glycol 8,000 (Hampton Research Corporation),
2 mM Dimethyldecylphoshine oxide [Apo-10] (Fluka Corporation)

[1] = human PAI-1, calculated from the inhibition rates
[2] = human PAI-1, compound concentration 0.1 μM
[3] = human PAI-1, compound concentration 0.3 μM
[4] = human PAI-1, compound concentration 1 μM
[5] = human PAI-1, compound concentration 3 μM
[6] = human PAI-1, compound concentration 10 μM
[7] = human PAI-1, compound concentration 25 μM

T1 sequence (P05121 24-402): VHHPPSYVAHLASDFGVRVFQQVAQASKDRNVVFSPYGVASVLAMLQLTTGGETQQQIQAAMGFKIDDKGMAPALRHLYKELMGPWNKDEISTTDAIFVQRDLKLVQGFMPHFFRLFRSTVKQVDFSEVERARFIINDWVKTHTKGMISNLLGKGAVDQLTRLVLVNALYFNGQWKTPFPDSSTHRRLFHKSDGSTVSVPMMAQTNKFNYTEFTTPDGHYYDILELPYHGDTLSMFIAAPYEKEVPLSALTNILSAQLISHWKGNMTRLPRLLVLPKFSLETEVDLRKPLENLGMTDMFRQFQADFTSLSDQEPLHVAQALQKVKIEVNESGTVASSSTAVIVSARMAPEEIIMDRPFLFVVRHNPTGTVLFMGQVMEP

SMILES | Inhibition Rate of PAI-1 Activity (%) [2] [%] | Inhibition Rate of PAI-1 Activity (%) [3] [%] | Inhibition Rate of PAI-1 Activity (%) [4] [%] | Inhibition Rate of PAI-1 Activity (%) [5] [%] | also measured
O=C(O)COc1ccc(-c2ccc(OC(F)(F)F)cc2)cc1OCCCCc1ccccc1 [Compound 337] | – | – | – | – | IC50 [1]: 2020 nM
CCCCCCC(Oc1cc(-c2ccc(OC(F)(F)F)cc2)ccc1Oc1ccccc1)C(=O)O (stereo not drawn) [Compound 322] | – | – | – | – | IC50 [1]: 740 nM
O=C(O)CCc1ccc(-c2ccc(OC(F)(F)F)cc2)cc1OCCCOCc1ccccc1 [Compound 488] | 0 | 10 | 36 | 91 | –
CC(C)(C)c1ccc(Oc2cc(-c3ccc4ccccc4c3)ccc2CCC(=O)O)cc1 [Compound 470] | 3 | 16 | 87 | >99 | –
CC(C)(C)Oc1ccc(Oc2cc(-c3ccc(OC(F)(F)F)cc3)ccc2CCC(=O)O)cc1 [Compound 473] | 15 | 9 | 26 | >99 | –
CC(C)(C)C1CCC(N(C(=O)C(=O)O)c2ccc(-c3ccc(OC(F)(F)F)cc3)cc2)CC1 (stereo not drawn) [Compound 665] | – | – | – | – | Inhibition Rate of PAI-1 Activity (%) (human PAI-1, compound concentration 0.1 μM, 0.1 µM): 9%; Inhibition Rate of PAI-1 Activity (%) (human PAI-1, compound concentration 0.3 μM, 0.3 µM): 8%; Inhibition Rate of PAI-1 Activity (%) (human PAI-1, compound concentration 1 μM, 1 µM): 67%; Inhibition Rate of PAI-1 Activity (%) (human PAI-1, compound concentration 3 μM, 3 µM): >99%
CCC(CC)Oc1ccc(-c2ccc(OCC(=O)O)c(Oc3ccc(C(C)(C)C)cc3)c2)cc1 [Compound 447] | 4 | 11 | 89 | >99 | –
CC(C)(C)c1ccc(-c2ccc(CCC(=O)O)c(Oc3ccc(OC(F)(F)F)cc3)c2)cc1 [Compound 480] | 17 | 22 | 80 | >99 | –
CC(C)(C)c1ccc(Oc2cc(-c3cccc([N+](=O)[O-])c3)ccc2OCC(=O)O)cc1 [Compound 485] | 0 | 6 | 11 | 69 | –
CC(C)(C)c1ccc(Oc2ccc(-c3ccc(C(C)(C)C)cc3)cc2OCC(=O)O)cc1 [Compound 453] | 4 | 15 | 96 | >99 | –
CC(C)(C)c1cccc(Oc2cc(-c3ccc(OC(F)(F)F)cc3)ccc2CCC(=O)O)c1 [Compound 336] | – | – | – | – | IC50 [1]: 1080 nM; inhibition at 3 µM: > 99%
CC(Oc1cc(-c2ccc(OC(F)(F)F)cc2)ccc1CCC(=O)O)c1ccccc1 (stereo not drawn) [Compound 501] | 12 | 0 | 12 | 83 | –
CCCCOc1cccc(Oc2cc(-c3ccc(OC(F)(F)F)cc3)ccc2CCC(=O)O)c1 [Compound 472] | 15 | 14 | 71 | >99 | –
CC(C)(C)c1cccc(Oc2cc(-c3ccc(OC(F)(F)F)cc3)ccc2OCC(=O)O)c1 [Compound 436] | 3 | 19 | 63 | >99 | –
CCCCOc1ccc(-c2ccc(OC(F)(F)F)cc2)cc1CCC(=O)O [Compound 407] | – | – | 14 | 41 | Inhibition Rate of PAI-1 Activity (%) [6]: >99%; Inhibition Rate of PAI-1 Activity (%) [7]: 98%
CC(C)(C)c1ccc(Oc2cc(-c3ccc(C(C)(C)C)cc3)ccc2OCC(=O)O)cc1 [Compound 446] | 3 | 13 | 84 | >99 | –
CCCCC(Oc1ccc(-c2ccc(OC(F)(F)F)cc2)cc1OCc1ccc(C(C)(C)C)cc1)C(=O)O (stereo not drawn) [Compound 310] | – | – | – | – | IC50 [1]: 710 nM
O=C(O)C(=O)N(CCCCc1ccccc1)c1cc(-c2ccc(OC(F)(F)F)cc2)ccc1OC1CCCCC1 [Compound 368] | – | – | – | – | IC50: 450 nM
Cc1cc(C)cc(Oc2cc(-c3ccc(C(C)(C)C)cc3)ccc2CCC(=O)O)c1 [Compound 499] | 15 | 14 | 77 | 98 | –
CCCCOc1ccc(-c2ccc(OCC(=O)O)c(Oc3ccc(C(C)(C)C)cc3)c2)cc1 [Compound 468] | 1 | 5 | 86 | 97 | –
CC(C)(C)c1ccc(Oc2ccc(-c3ccc(OC(F)(F)F)cc3)cc2OCC(=O)O)cc1 [Compound 302] | – | – | – | – | IC50 [1]: 1700 nM
O=C(O)C(=O)N(CCCCc1ccccc1)c1cc(-c2ccc(OC(F)(F)F)cc2)ccc1OCCCC1CCCC1 [Compound 355] | – | – | – | – | IC50 [1]: 640 nM
CC(C)(C)c1ccc(-c2ccc(OCC(=O)O)c(Oc3cccc(C(C)(C)C)c3)c2)cc1 [Compound 465] | 10 | 17 | 87 | 98 | –
CCCCCCCCOc1ccc(-c2ccc(OC(F)(F)F)cc2)cc1N(CCCCc1ccccc1)C(=O)C(=O)O [Compound 353] | – | – | – | – | IC50 [1]: 510 nM
CC(C)(C)c1ccc(Oc2cc(-c3cccc(C(F)(F)F)c3)ccc2OCC(=O)O)cc1 [Compound 315] | – | – | – | – | IC50 [1]: 850 nM; inhibition at 3 µM: > 99%
CCCCCOc1ccc(-c2ccc(C(F)(F)F)cc2)cc1N(CCCCc1ccccc1)C(=O)C(=O)O [Compound 390] | – | – | – | – | IC50: 650 nM

Now from value to compound, other results behind:

Inhibition Rate of PAI-1 Activity (%) [2] [%] | Inhibition Rate of PAI-1 Activity (%) [3] [%] | Inhibition Rate of PAI-1 Activity (%) [4] [%] | Inhibition Rate of PAI-1 Activity (%) [5] [%] | SMILES | also measured
– | – | 40 | >99 | CC(C)(C)c1ccc(CN(C(=O)C(=O)O)c2ccc(N3CCN(c4ccc(OC(F)(F)F)cc4)CC3)cc2)cc1 [Compound 628] | Inhibition Rate of PAI-1 Activity (%) [6]: >99%; Inhibition Rate of PAI-1 Activity (%) [7]: 90%
6 | 12 | 91 | 87 | CC(C)[C@@H]1CC[C@@H](C)C[C@H]1Oc1ccc(-c2ccc(OC(F)(F)F)cc2)cc1N(CCCCc1ccccc1)C(=O)C(=O)O [Compound 639] | –
14 | 30 | 45 | 91 | CC(C)(C)c1ccc(Oc2cc(-c3ccc(OC(F)(F)F)cc3)ccc2N(CCCCc2ccccc2)C(=O)C(=O)O)cc1 [Compound 635] | –
5 | 55 | >99 | 98 | O=C(O)C(=O)N(CCCCc1ccccc1)c1ccc(N2CCCCCC2)c(-c2ccc(OC(F)(F)F)cc2)c1 [Compound 674] | –
9 | 53 | 95 | 95 | CCCCC(C(=O)O)N(Cc1ccc(C(C)(C)C)cc1)c1cccc(-c2ccc(OC(F)(F)F)cc2)c1 (stereo not drawn) [Compound 641] | –
18 | 29 | 94 | >99 | CC(C)(C)c1ccc(Sc2cc(-c3ccc(OC(F)(F)F)cc3)ccc2/C=C\C(=O)O)cc1 [Compound 529] | –
6 | 36 | 98 | >99 | CC(C)(C)c1ccc(Oc2cc(-c3ccc(OC(F)(F)F)cc3)ccc2CCCC(=O)O)cc1 [Compound 527] | –
3 | 0 | 44 | 97 | CCCCCOc1ccc(-c2ccc(OC(F)(F)F)cc2)cc1N(CCCOCc1ccccc1)C(=O)C(=O)O [Compound 655] | –
16 | 40 | >99 | >99 | CCCCCCCOc1cc(N(CCCCc2ccccc2)C(=O)C(=O)O)ccc1-c1ccc(OC(F)(F)F)cc1 [Compound 650] | –
– | – | 7 | 25 | CC(C)(C)c1ccc(N(Cc2ccc(-c3ccccc3)cc2)C(=O)C(=O)O)cc1 [Compound 612] | Inhibition Rate of PAI-1 Activity (%) [6]: 84%; Inhibition Rate of PAI-1 Activity (%) [7]: >99%
19 | 17 | 93 | 98 | CCCCCOc1ccc(-c2ccc(C)cc2)cc1N(CCCCc1ccccc1)C(=O)C(=O)O [Compound 677] | –
– | – | 6 | 64 | CC(C)(C)c1ccc(CN(C(=O)C(=O)O)c2ccc(C(=O)Nc3ccc(OC(F)(F)F)cc3)cc2)cc1 [Compound 617] | Inhibition Rate of PAI-1 Activity (%) [6]: >99%; Inhibition Rate of PAI-1 Activity (%) [7]: >99%
17 | 37 | >99 | 92 | O=C(O)C(=O)N(CCCCc1ccccc1)c1cc(-c2ccc(OC(F)(F)F)cc2)ccc1OC1C2CC3CC(C2)CC1C3 (stereo not drawn) [Compound 634] | –
9 | 20 | 97 | >99 | O=C(O)C(=O)N(CCCCc1ccccc1)c1cc(-c2ccc(OC(F)(F)F)cc2)ccc1OC1CCCC1 [Compound 658] | –
